Measurements reported in publication PMC8455565 (Scientific Reports, 2021).

What was measured:
TXK = biological target: T1, TXK (Homo sapiens, UniProt P42681); test: Kinase biochemical assay (FRET), TXK; settings: read-out: inhibitory activity on TXK
T1 sequence (P42681 1-527): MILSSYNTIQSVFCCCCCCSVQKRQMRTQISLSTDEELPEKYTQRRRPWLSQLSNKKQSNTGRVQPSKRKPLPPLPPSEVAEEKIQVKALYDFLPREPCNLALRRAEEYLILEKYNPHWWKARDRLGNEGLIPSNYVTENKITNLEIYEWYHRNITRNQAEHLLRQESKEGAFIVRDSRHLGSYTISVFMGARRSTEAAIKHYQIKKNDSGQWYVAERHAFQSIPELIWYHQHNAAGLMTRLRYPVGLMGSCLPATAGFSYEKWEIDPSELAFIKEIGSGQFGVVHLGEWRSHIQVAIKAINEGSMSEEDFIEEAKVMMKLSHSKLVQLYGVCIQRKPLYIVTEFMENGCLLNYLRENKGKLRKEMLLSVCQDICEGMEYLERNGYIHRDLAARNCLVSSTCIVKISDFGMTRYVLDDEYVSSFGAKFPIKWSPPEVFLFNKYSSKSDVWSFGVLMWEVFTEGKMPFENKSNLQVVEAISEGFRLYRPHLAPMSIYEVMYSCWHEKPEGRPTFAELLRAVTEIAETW

BTK [1] = biological target: T2, BTK (Rattus norvegicus, UniProt Q5S255); test: BTK occupancy molecular probe assay in rat PBMCs; type: cell-based; settings: 1 h treatment, biotinylated probe; read-out: IC50, BTK target modulation (occupancy) in rat PBMCs
T2 construct: endogenous in cells; host or cells: rat PBMCs (normal rats in vitro; CIA model rats ex vivo)
T2 sequence (Q5S255 1-660): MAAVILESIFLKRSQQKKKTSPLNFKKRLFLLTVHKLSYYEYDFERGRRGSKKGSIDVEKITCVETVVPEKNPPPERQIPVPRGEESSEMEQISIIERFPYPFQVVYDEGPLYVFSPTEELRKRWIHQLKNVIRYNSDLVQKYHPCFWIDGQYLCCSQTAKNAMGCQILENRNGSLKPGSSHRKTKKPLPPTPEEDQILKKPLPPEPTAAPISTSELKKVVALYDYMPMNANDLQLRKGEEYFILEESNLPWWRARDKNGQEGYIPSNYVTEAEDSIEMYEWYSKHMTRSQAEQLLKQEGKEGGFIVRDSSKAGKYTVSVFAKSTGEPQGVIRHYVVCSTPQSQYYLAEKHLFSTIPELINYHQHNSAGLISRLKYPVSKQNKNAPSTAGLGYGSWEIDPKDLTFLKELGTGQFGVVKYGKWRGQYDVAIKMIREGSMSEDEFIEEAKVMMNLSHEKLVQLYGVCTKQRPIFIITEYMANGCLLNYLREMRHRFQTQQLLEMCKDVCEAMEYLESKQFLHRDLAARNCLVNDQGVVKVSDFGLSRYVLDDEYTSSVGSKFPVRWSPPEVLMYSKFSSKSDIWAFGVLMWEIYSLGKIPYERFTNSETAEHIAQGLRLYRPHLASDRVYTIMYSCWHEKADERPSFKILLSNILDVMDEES
Protocol: (§1) The BTK occupancy assay and analysis of BTK phosphorylation inhibition were performed as described previously. Briefly, isolated PBMCs were lysed with RIPA buffer (R0278, Sigma-Aldrich) containing 1 × protease/phosphatase inhibitor (1861281, Thermo Fisher Scientific) and EDTA (1861274, Thermo Fisher Scientific). The supernatants were collected by 10 min at 14,000 × g in microcentrifuge at 4 °C and biotinylated probe was added to bind free BTK for 1 h. Rabbit anti-BTK Ab (1:5000 in 1% BSA) bound the captured BTK/probe complex, and was detected with […] antibody conjugated with HRP then ultra-TMB solution was added to each well for the free BTK analysis. Analysis of free and total BTK levels for the phase I study was conducted by Cambridge Biomedical Inc. (MA, USA). BTK occupancy was calculated by taking the free BTK and total BTK results from a given donor and used the following formula: %BTKoccupancy=100%-FreeBTK/totalBTK×100.
BTK occupancy (%) was calculated from the free BTK percentage, which was compared with that of the untreated control group. […] Bone erosion ( →) was quantified a subchondral and bone destruction and synovitis (*) was scored degree of pannus formation, including synovial inflammation, hypertrophy, interstitial edema, and fibrosis (H&E). Cartilage damage (□) was semiquantitatively scored as an intensity of Safranin-O staining (red). […]

CIA model rats = test: Collagen-induced arthritis (CIA) model, clinical score and body weight; type: in vivo, rat; settings: for Arthritis clinical score: day 8, mean ± SEM
Protocol: All animals were obtained from Charles River Japan (150 ± 10 g, 6 weeks old). The experimental protocols were approved by the animal care and use committee of the Hanmi Research Center and performed in accordance with approved guidelines. Briefly, 7-week-old male Lewis rats were immunized with a collagen emulsion of equal volumes of IFA ([…], Sigma-Aldrich) and bovine type II collagen (total volume, 0.6 mL) via intradermal injection into the base of the tail. Seven days later, the rats were given a booster immunization of 0.3 ml of collagen emulsion in the same manner. The incidence of arthritis was 79% on day 6 after booster immunization, and the rats were randomized into 4 groups when the average clinical score of each animal was 2.8 (on a scale of 16) (n = 20 in each drug-administered group, n = 8 in the CIA control group). […] The arthritis score was determined by grading each paw from 0 to 4 based on erythema, swelling, and flexion of the joint. Body weight was also measured three times per week.

B cells (IgM+CD40L) = test: High-dimensional phosphorylation analysis, B cells (IgM+CD40L); type: cell-based, human
Protocol: The analysis measured 94 intracellular signaling nodes (81 phosphorylation sites, 10 total protein levels and 3 methylation/acetylation sites) in stimulated immune cells, including B cells (IgM plus CD40L), CD4 + and CD8 + T cells (IL-2; CD3 plus CD28), monocytes (M-CSF), NK cells (IL-2), and granulocytes (LPS).

BTK [2] = biological target: T3, BTK (Homo sapiens, UniProt Q06187); test: BTK occupancy in whole blood ex vivo; type: cell-based; set-up: from tissue; host or cells: whole blood
T3 sequence (Q06187 whole entry): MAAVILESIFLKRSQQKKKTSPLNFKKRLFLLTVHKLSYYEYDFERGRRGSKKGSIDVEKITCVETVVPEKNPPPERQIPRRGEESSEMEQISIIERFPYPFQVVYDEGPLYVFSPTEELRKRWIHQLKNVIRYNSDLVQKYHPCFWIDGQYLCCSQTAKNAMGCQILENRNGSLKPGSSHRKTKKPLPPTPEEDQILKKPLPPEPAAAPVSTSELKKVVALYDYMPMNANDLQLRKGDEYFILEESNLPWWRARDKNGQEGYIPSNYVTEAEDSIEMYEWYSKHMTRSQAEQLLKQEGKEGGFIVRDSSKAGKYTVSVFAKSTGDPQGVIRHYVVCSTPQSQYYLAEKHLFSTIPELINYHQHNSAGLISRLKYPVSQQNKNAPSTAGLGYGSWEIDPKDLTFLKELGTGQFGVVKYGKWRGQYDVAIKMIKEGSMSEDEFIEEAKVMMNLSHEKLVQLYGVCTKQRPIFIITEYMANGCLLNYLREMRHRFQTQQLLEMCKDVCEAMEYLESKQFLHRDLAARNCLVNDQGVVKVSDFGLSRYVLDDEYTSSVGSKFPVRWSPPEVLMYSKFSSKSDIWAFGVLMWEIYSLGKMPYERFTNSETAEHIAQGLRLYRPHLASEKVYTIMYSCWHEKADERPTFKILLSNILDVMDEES

BTK [3] = biological target: T3, BTK; test: Phase I BTK occupancy (free BTK ELISA) in PBMCs of healthy volunteers; type: in vivo; set-up: endogenous in cells; host or cells: PBMCs of healthy volunteers
Protocol: PK/PD data from 24 subjects who had received the drug BID among the 90 total subjects who participated in the MAD study were analyzed. Blood was collected on day 1 before drug administration and 1 h, 2 h, 4 h, and 12 h after drug administration. Blood samples were taken 3 days and 2 h after drug administration. Additional blood samples were taken on day 6 (5, 20, and 60 mg/kg), day 15 (40 mg/kg), day 17, and day 21 for PK/PD analysis.
as §1

[4] = 30 μM, all time points (2, 5, 15, 60 min)

IC50 (TXK): < 0.01 µM | IC50 (BTK [1]): 0.0146 ± 0.0033 µM | IC50 (BTK [2]): 0.16 µM | time of maximum BTK inhibition (BTK [3]; 40 mg): 12 h | BTK occupancy (BTK [3]; 40 mg dosing, maintained up to 48 h after the first dose): More than 80% | time of maximum BTK inhibition (BTK [3]; 60 mg): 4 h | BTK inhibition (BTK [3]; 4 h after the first dose, doses of 40 mg and higher): > 90% | inhibition at 20 mg (BTK [3]; human, steady state (120 h), doses of 20 mg bid and higher): > 90%
SMILES: C=CC(=O)Nc1cccc(Oc2nc(Nc3ccc(N4CCN(C)CC4)cc3)nc3ccoc23)c1 [Poseltinib]
Arthritis clinical score (CIA model rats; 0.3 mg/kg oral once daily): 8.5 ± 0.5 | Arthritis clinical score (CIA model rats; 1 mg/kg oral once daily): 6.7 ± 0.6 | disease-induced body weight loss (CIA model rats; 3 mg/kg): prevented weight loss | Arthritis clinical score (CIA model rats; 3 mg/kg oral once daily): 2.7 ± 0.4 | Akt phosphorylation, Log2Ratio Stim/Control (B cells (IgM+CD40L); 30 µM, 5'): -0.97 | BTK phosphorylation, Log2Ratio Stim/Control (B cells (IgM+CD40L); 30 µM, 5'): 0.06 | CREB1 phosphorylation, Log2Ratio Stim/Control (B cells (IgM+CD40L); 30 µM, 5'): 1.74 | MAPK3 phosphorylation, Log2Ratio Stim/Control (B cells (IgM+CD40L); 30 µM, 5'): 1.30 | PLCγ2 phosphorylation, Log2Ratio Stim/Control (B cells (IgM+CD40L); 30 µM, 5'): 0.82 | RPS6KA1 phosphorylation, Log2Ratio Stim/Control (B cells (IgM+CD40L); 30 µM, 5'): 1.13 | RPS6 phosphorylation, Log2Ratio Stim/Control (B cells (IgM+CD40L); 30 µM, 5'): 1.35 | SAPK/JNK phosphorylation, Log2Ratio Stim/Control (B cells (IgM+CD40L); 30 µM, 5'): 0.82 | SLP76 phosphorylation, Log2Ratio Stim/Control (B cells (IgM+CD40L); 30 µM, 5'): 0.86 | WIPF1 phosphorylation, Log2Ratio Stim/Control (B cells (IgM+CD40L); 30 µM, 5'): 1.81 | phosphorylation of AKT (S473) (B cells (IgM+CD40L); [4]): inhibited | phosphorylation of BTK (Y223) (B cells (IgM+CD40L); [4]): inhibited | phosphorylation of PLCγ2 (Y759) (B cells (IgM+CD40L); [4]): inhibited
